Test results taken from patent US20240083846A1, “SMAC MIMETICS FOR TREATMENT OF CANCER, PROCESS FOR PREPARATION AND PHARMACEUTICAL COMPOSITION THEREOF” (COUNCIL OF SCIENTIFIC & INDUSTRIAL RESEARCH, priority 2020, published 2024).
Like-named read-outs stand apart in the source and are kept apart here. Where a SMILES comes first, the peptide text is derived from it. [ ]: non-standard residue; d: D form. The star is where a group is joined. Pro(5R-(5-methylfur-2-yl)) = Cc1ccc([C@H]2CC[C@@H](C(=O)O)N2)o1; NHCHPh2 = c1ccc(C(N*)c2ccccc2)cc1; Chg = N[C@H](C(=O)O)C1CCCCC1; NMeA = CN[C@@H](C)C(=O)O; OBn = c1ccc(CO*)cc1

Key:
HT29 cells = assay: SRB cytotoxicity assay, HT29; assay type: cell-based; conditions: for inhibition at 10 µM: Homo sapiens, read-out: In vitro cytotoxicity at 10 μM dose, HT29 (percent growth inhibition)
Experimental: (§1) In vitro cytotoxic activities of different compounds were assessed by using standard SRB assay in different cells. The absorbance of the treated and untreated cells was measured on a multi-well scanning spectrophotometer (Epoch Microplate Reader, Biotek, USA) at a wavelength of 510 nm. Percent growth inhibition was calculated by using the formula […].

SW 620 cells = assay: SRB cytotoxicity assay, SW 620; assay type: cell-based; conditions: for inhibition at 10 µM: Homo sapiens, read-out: In vitro cytotoxicity at 10 μM dose, SW 620 (percent growth inhibition)
Experimental: as §1

XIAP BIR2 protein = XIAP BIR2 protein (Homo sapiens, UniProt P98170); assay: Fluorescence polarization competition binding assay, XIAP BIR2
Experimental: (§2) The SMAC mimetics 1-9 were tested for their ability to displace the fluorescent labeled peptide AVPIAQK(FAM)-OH from XIAP BIR2 or XIAP BIR3 protein. The dose dependent binding experiment were then carried out by sequentially increasing the concentration of SMAC mimetic compounds at constant concentration of fluorescent labeled peptide and XIAP BIR2 or XIAP BIR3 protein. IC5- values were determined from the plot draw by prism software using nonlinear least-squares analysis. The Ki values of the SMAC mimetics were calculated which was based upon the measured IC50 values, the Kd value between tracer AVPIAQK(FAM)-OH and XIAP BIR2 or XIAP BIR3 complex, and the concentrations of the protein and tracer in the competition assay by using the web based program which are freely accessed at http://sw16.im.med.umich.edu/software/calc_ki/.In-silico.
(§3) Binding isotherms were plotted between FP reading versus log values of protein concentration in nM. The data was analysed using GraphPad prism and Kd values were determined using Boltzmann-sigmoidal non-linear regression curve fitting.

XIAP BIR3 protein = XIAP BIR3 protein (Homo sapiens, UniProt P98170); assay: Fluorescence polarization competition binding assay, XIAP BIR3
Experimental: as §2, §3

[1] = SRB cytotoxicity assay, VERO; assay type: cell-based, monkey; conditions: monkey
Experimental: as §1

HCT 116 cells = assay: SRB cytotoxicity assay, HCT 116; assay type: cell-based; conditions: Homo sapiens, read-out: In vitro cytotoxicity at 10 μM dose, HCT 116 (percent growth inhibition)
Experimental: as §1

SW-620 xenograft = assay: Cisplatin resistant SW-620 xenograft model; assay type: in vivo, nude Crl: CD1-Foxnlnu mice; conditions: FIG. 7
Description: All the animals were maintained in a pathogen-free facility under a day—night cycle.

[2] = HT-29, 10 μM, 48 hours, SRB assay
[3] = displacement of AVPIAQK(FAM)-OH, fluorescence polarization, read-out: Target Binding BIR2 Ki
[4] = displacement of AVPIAQK(FAM)-OH, fluorescence polarization, read-out: Target Binding BIR3 Ki
[5] = VERO cells, 10 μM, 48 hours, SRB assay, read-out: In vitro cytotoxicity at 10 μM dose, VERO (percent growth inhibition)
[6] = HCT-116, 10 μM, 48 hours, SRB assay
[7] = SW-620, 10 μM, 48 hours, SRB assay

XIAP BIR3 protein, sequence (P98170 241-356 limits assumed): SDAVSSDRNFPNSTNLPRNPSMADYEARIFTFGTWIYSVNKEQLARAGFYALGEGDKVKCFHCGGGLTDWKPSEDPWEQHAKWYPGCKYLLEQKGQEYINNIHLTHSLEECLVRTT
XIAP BIR2 protein, sequence (P98170 124-240 limits assumed): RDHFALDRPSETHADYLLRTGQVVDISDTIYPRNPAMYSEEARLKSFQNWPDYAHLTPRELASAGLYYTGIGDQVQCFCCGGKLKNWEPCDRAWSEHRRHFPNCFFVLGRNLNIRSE

Structure (SMILES) | inhibition at 10 µM (HT29 cells; [2]) | Ki (XIAP BIR2 protein; [3]) | Ki (XIAP BIR3 protein; [4]) | inhibition at 48 h, 10 μM [1, 5] | inhibition at 10 µM (HCT 116 cells; [6]) | inhibition at 10 µM (SW 620 cells; [7]) | other results
CC[C@H](C)[C@H](NC(=O)[C@@H]1CCCN1C(=O)[C@@H](NC(=O)[C@H](C)N)C(C)C)C(=O)O [Compound 1, L-alanyl-L-valyl-L-prolyl-L-isoleucine] |  |  |  |  |  |  | In vitro cytotoxicity at 10 μM dose, HT29 (percent growth inhibition) (HT29 cells; 10 μM, 48 hours, SRB assay): −0.01 ± 3.6%; In vitro cytotoxicity at 10 μM dose, SW 620 (percent growth inhibition) (SW 620 cells; 10 μM, 48 hours, SRB assay): 0.97 ± 2.3%
CC[C@H](C)[C@H](NC(=O)[C@@H]1CC[C@H](c2ccc(C)o2)N1C(=O)[C@@H](NC(=O)[C@H](C)N)C(C)C)C(=O)OCc1ccccc1 [Compound 2, benzyl ((2S,5R)-1-(L-alanyl-L-valyl)-5-(5-methylfuran-2-yl)pyrrolidine-2-carbonyl)-L-isoleucinate] | -1.83 ± 5.5% | > 10000 nM | > 10000 nM | 24.2 ± 22.7% | -7.06 ± 6.9% | 7.88 ± 8% | 
Cc1ccc([C@H]2CC[C@@H](C(=O)NC(c3ccccc3)c3ccccc3)N2C(=O)[C@@H](NC(=O)[C@H](C)N)C(C)C)o1 [Compound 3, (2S,5R)-1-(L-alanyl-L-valyl)-N-benzhydryl-5-(5-methylfuran-2-yl)pyrrolidine-2-carboxamide] | -0.46 ± 2.2% | 1080 nM | 230 nM | 3.89 ± 3.4% | -2.6 ± 6.1% | 1.44 ± 2.1% | 
CC[C@H](C)[C@H](NC(=O)[C@@H]1CC[C@H](c2ccc(C)o2)N1C(=O)[C@@H](NC(=O)[C@H](C)NC)C(C)C)C(=O)OCc1ccccc1 [Compound 4, (2S,3S)-benzyl 3-methyl-2-((2S,5R)-1-((S)-3-methyl-2-((S)-2-(methylamino)propanamido)butanoyl)-5-(5-methylfuran-2-yl)pyrrolidine-2-carboxamido)pentanoate] | 12 ± 0.6% | 7390 nM | 4380 nM | 4.54 ± 5.6% | -8.07 ± 6.6% | -4.1% | 
CN[C@@H](C)C(=O)N[C@H](C(=O)N1[C@@H](c2ccc(C)o2)CC[C@H]1C(=O)NC(c1ccccc1)c1ccccc1)C(C)C [Compound 5, (2S,5R)-N-benzhydryl-1-(methyl-L-alanyl-L-valyl)-5-(5-methylfuran-2-yl)pyrrolidine-2-carboxamide] | 40.9 ± 5.3% | 3250 nM | 500 nM | 11.4 ± 1.1% | 5.96 ± 1.2% | 8.11 ± 11.3% | 
CC[C@H](C)[C@H](NC(=O)[C@@H]1CC[C@H](c2ccc(C)o2)N1C(=O)[C@@H](NC(=O)[C@H](C)NC)C1CCCCC1)C(=O)OCc1ccccc1 [Compound 7, (2S,3S)-benzyl 2-((2S,5R)-1-((S)-2-cyclohexyl-2-((S)-2-(methylamino)propanamido)acetyl)-5-(5-methylfuran-2-yl)pyrrolidine-2-carboxamido)-3-methylpentanoate] (H-[NMeA][Chg][Pro(5R-(5-methylfur-2-yl))]I-OBn) |  | > 10000 nM | 1420 nM |  |  |  | inhibition at 10 µM (HT29 cells; HT-29, 48 h): 71.6 ± 10.2%; inhibition at 48 h, 10 μM [1]: 63.2 ± 5%; inhibition at 10 µM (HCT 116 cells; HCT-116, 48 h): 76.5 ± 2.3%; inhibition at 10 µM (SW 620 cells; SW-620, 48 h): 52.9 ± 22.4%
CN[C@@H](C)C(=O)N[C@H](C(=O)N1[C@@H](c2ccc(C)o2)CC[C@H]1C(=O)NC(c1ccccc1)c1ccccc1)C1CCCCC1 [Compound 8, (2S ,5R)-N-benzhydryl-1-((S)-2-cyclohexyl-2-((S)-2-(methylamino)propanamido)acetyl)-5-(5-methylfuran-2-yl)pyrrolidine-2-carboxamide] | 66 ± 2.4% | 1800 nM | 730 nM | 39.4 ± 6.9% | 48.5 ± 6.7% | 38.7 ± 12.6% | 
CC[C@H](C)[C@H](NC(=O)[C@@H]1CC[C@H](c2ccc(C)o2)N1C(=O)[C@@H](NC(=O)[C@H](C)NC)C1CCCCC1)C(=O)NC(c1ccccc1)c1ccccc1 [Compound 9, (2S,5R)-N-((2S ,3S)-1-(benzhydrylamino)-3-methyl-l-oxopentan-2-yl)-1-((S)-2-cyclohexyl-2-((S)-2-(methylamino)propanamido)acetyl)-5-(5-methylfuran-2-yl)pyrrolidine-2-carboxamide] (H-[NMeA][Chg][Pro(5R-(5-methylfur-2-yl))]I-NHCHPh2) |  |  |  |  |  |  | inhibition at 10 µM (HT29 cells; HT-29, 48 h): 72.7 ± 6.9%; Ki (XIAP BIR2 protein): > 10000 nM; Ki (XIAP BIR3 protein): 790 nM; inhibition at 48 h, 10 μM ([1]; 10 μM, 48 hours, SRB assay, read-out: In vitro cytotoxicity at 10 μM dose, VERO (percent growth inhibition)): 59.4 ± 11.7%; inhibition at 10 µM (HCT 116 cells; HCT-116, 48 h): 66.2 ± 15%; inhibition at 10 µM (SW 620 cells; SW-620, 48 h): 81.8 ± 3.3%
N.N.[Cl][Pt][Cl] [cisplatin, reference compound] |  |  |  |  |  |  | In vivo anti tumor efficacy (SW-620 xenograft): failed to deliver its effect
